The values below come from ChEMBL document CHEMBL1122994, “Effect of structural modification of the hydantoin ring on anticonvulsant activity” (J Med Chem, 1985).

Broadly, the ED50 is the dose that gives a 50% effect, or the effect in half of the subjects. The term TD50 denotes the dose at which the toxic effect under study appears in half of the subjects. Low values mean harm at a small dose, high ones harm only at a large dose.

Structures are written as SMILES. Active and inactive are the calls of the source. The calls are words filed in the database; no cut-off is given here.

Series [1] deals with Mus musculus. The series is described as follows: Anticonvulsant activity was evaluated by Neurologic toxicity (the rotarod test) at dose 300 mg/kg; 2=Noticeable activity. Type of series: functional. (In general: The rotarod test checks motor coordination on a turning rod.)
Series [2] relates to Mus musculus. Description: Anticonvulsant activity was evaluated by maximal electroshock seizure (MES) test at dose 300 mg/kg; 2=Noticeable activity. Type of series: functional. (In general: Protection in the maximal electroshock model is a classic sign of anticonvulsant action.)
The test system of series [3] is Mus musculus. The series is described as follows: Anticonvulsant activity was evaluated by subcutaneous pentylenetetrazole (Metrazol) (sc Met) seizure test at dose 600 mg/kg; 1=Noticeable activity. The format is functional.
The subject of series [4] is Mus musculus. The series is described as follows: Anticonvulsant activity was evaluated by maximal electroshock seizure (MES) test at dose 600 mg/kg; No activity. Type of series: functional.
The subject of series [5] is Mus musculus. The series is described as follows: Anticonvulsant activity was evaluated by Neurologic toxicity (the rotarod test) at dose 600 mg/kg; No activity. The format is functional.
Series [6] concerns Mus musculus. The series is described as follows: Anticonvulsant activity was evaluated by subcutaneous pentylenetetrazole (Metrazol) (sc Met) seizure test at dose 600 mg/kg; No activity. The format is functional.
The subject of series [7] is Mus musculus. Description: Anticonvulsant activity was evaluated by maximal electroshock seizure (MES) test at dose 600 mg/kg; 1=Noticeable activity. Type of series: functional.
The subject of series [8] is Mus musculus. The series is described as follows: Anticonvulsant activity was evaluated by subcutaneous pentylenetetrazole (Metrazol) (sc Met) seizure test at dose 300 mg/kg; 2=Noticeable activity. Type of series: functional.
Series [9] relates to Mus musculus. The series is described as follows: Anticonvulsant activity was evaluated by Neurologic toxicity (the rotarod test) at dose 600 mg/kg; 1=Noticeable activity. The format is functional.
The species entered for series [10] is Mus musculus. The series is described as follows: Effective dose was evaluated by maximal electroshock seizure (MES) test. Type of series: functional.
Series [11] concerns Mus musculus. The series is described as follows: Effective dose was evaluated by subcutaneous pentylenetetrazole (Metrazol) (sc Met) seizure test; NE means not effective. Type of series: functional, organism-based.
Series [12] concerns Mus musculus. Description: Effective dose was evaluated by subcutaneous pentylenetetrazole (Metrazol) (sc Met) seizure test. The format is functional.
Series [13] has as its system Mus musculus. Description: Anticonvulsant activity was evaluated by maximal electroshock seizure (MES) test at dose 100 mg/kg; 3=Noticeable activity. The format is functional.
For series [14], the system named is Mus musculus. The series is described as follows: Anticonvulsant activity was evaluated by subcutaneous pentylenetetrazole (Metrazol) (sc Met) seizure test at dose 100 mg/kg; 3=Noticeable activity. The format is functional.
A short description of series [15]: Toxic dose was evaluated by neurological toxicity (the rotarod test). The format is organism-based. Conditions: mouse, in vivo.
The subject of series [16] is Mus musculus. Description: Anticonvulsant activity was evaluated by subcutaneous pentylenetetrazole (Metrazol) (sc Met) seizure test at dose 30 mg/kg. The format is functional.

On to `COc1cccc(CCCN2C(=O)NC(C)(C)C2=O)c1`, for which the Activity is 2 in series [1], 2 in [2] and 1 in [3].

For the compound `CN1C(=O)NCC1O` (centres undefined), the Activity in series [4], in series [5] and in series [6] was 0 throughout.

For `CC1NC(=O)N(C)C1O` (centres undefined), the Activity in series [4], in [5] and in series [6] was 0 each time.

As to `Cn1cc(-c2ccccc2)nc1O`, the Activity amounted to 1 in series [7], 0 in series [5] and 1 in series [3].

For `Oc1nc(-c2ccccc2)cn1-c1ccccc1`, the Activity in series [4] is on record as 0; in series [5] it was 0; in series [8], 2.

Take `COc1ccc2c(c1)CCCN1C(=O)NC(C)(C)C21` (centres undefined): the Activity in [4], in series [5] and in [6] was 0 throughout.

Turning to `CN1C(=O)NC(c2ccccc2)C1O` (centres undefined), the Activity in series [5] amounted to 0; in [8], 2; in series [3], 1.

On to `CC1NC(=O)N(Cc2ccccc2)C1O` (centres undefined), for which the Activity was determined as 2 in series [2], 1 in series [3] and 1 in series [9].

`O=C1NC(=O)C(c2ccccc2)(c2ccccc2)N1` [PHENYTOIN] had an ED50 in [10] of 10 mg/kg. The ED50 result in series [11] was “inactive”.

Regarding `Cc1cn(-c2ccccc2)c(O)n1`, the figures for the Activity in series [7], in series [6] and in series [9] were 1, 0 and 1, respectively.

In the case of `O=C1CNC(=O)N1c1ccccc1`, the Activity is 1 in series [7], 0 in series [5] and 0 in series [6].

For `CNC(=O)C(NC(C)=O)c1ccccc1` (centres undefined), the Activity in series [4], in series [5] and in series [6] was 0 throughout.

As for `CN1C(=O)NC(c2ccccc2)C1=O` (centres undefined), the ED50 in series [10] came to 75 mg/kg; in [12] it was 26 mg/kg. In addition, the results for the Activity in [13], in series [14] and in series [9] were 3, 3 and 1, respectively. In series [15], this compound had a TD50 of 271 mg/kg.

For `COc1cccc(CCCN2C(=O)NC(C)(C)C2O)c1` (centres undefined), the Activity in series [2] worked out at 2; in [8] it was 2; in series [9] it was 1.

As for `COc1cc2c(cc1OC)C1N(CC2)C(=O)NC1(C)C` (centres undefined), the Activity turned out to be 0 in series [4], 0 in series [6] and 1 in series [9].

For `CC1(C)NC(=O)N(CCc2ccccc2)C1=O`, the ED50 in series [10] turned out to be 110 mg/kg; in [12], 130 mg/kg. Moreover, the Activity in series [13] was determined as 3; in [1], 2; in series [8], 2. The TD50 in series [15] was determined as 243 mg/kg.

On to `CC1(C)NC(=O)N2C=Cc3ccccc3C21` (centres undefined), for which the Activity in series [1], in [2] and in series [8] was 2 in each case.

As for `CC(N)C(=O)NCc1ccccc1` (centres undefined), the Activity in [1] was 2; in [2], 2; in [6], 0.

`Cc1cn(Cc2ccccc2)c(O)n1`: in [10], it took a dose of 90 mg/kg to reach the 50% effect level (ED50). The Activity stood at 2 in series [2], 2 in [8] and 1 in [9]. For the same compound, in series [15], the TD50 is 268 mg/kg.

Regarding `CNCC(NC)c1ccccc1` (centres undefined), the Activity in series [4] came out at 0; in series [1], 2; in series [6], 0.

For the compound `CNC(C)CNCc1ccccc1` (centres undefined), the figures for the Activity in [4], in series [1] and in [6] were 0, 2 and 0, respectively.

In the case of `CC1NC(=O)N(c2ccccc2)C1=O` (centres undefined), the Activity came to 0 in series [4], 0 in series [6] and 1 in [9].

For the compound `O=C1NC(c2ccccc2)C(=O)N1c1ccccc1` (centres undefined), the Activity in series [4], in [5] and in series [6] was 0 throughout.

Regarding `Cc1cn(C)c(=O)n1C`, the Activity in [4], in [5] and in series [6] was 0 throughout.

As for `O=C1NC(c2ccccc2)C(O)N1Cc1ccccc1` (centres undefined), the Activity in series [4], in [5] and in [6] was 0 throughout.

With `CN1CC(c2ccccc2)NC1=O` (centres undefined), the Activity is recorded as 2 in series [1], 2 in series [2] and 1 in [3].

Consider `CNC(=O)C(N)c1ccccc1` (centres undefined), for which the Activity in series [4], in [5] and in series [6] was 0 throughout.

Consider `O=C1CNC(=O)N1Cc1ccccc1`, for which the ED50 in series [10] turned out to be 65 mg/kg; in series [12], 114 mg/kg. Moreover, the Activity was 3 in series [13], 2 in series [1] and 2 in [8]. In series [15], this compound showed a TD50 of 224 mg/kg.

Turning to `O=C1NC(c2ccccc2)C(O)N1c1ccccc1` (centres undefined), the Activity in series [4], in series [5] and in [6] was 0 in each case.

Take `Oc1nccn1-c1ccccc1`: the ED50 in series [10] came to 124 mg/kg; in series [12], 173 mg/kg. For the same compound, the Activity in series [13] is 3; in series [1], 2; in series [8], 2. Further, the TD50 in series [15] was 211 mg/kg.

As for `CC1NC(=O)N(c2ccccc2)C1O` (centres undefined), the Activity in series [7], in [3] and in [9] was 1 each time.

Take `CC1NC(=O)N(Cc2ccccc2)C1=O` (centres undefined): the Activity in series [16] came out at 4; in [8] it was 2; in [9], 1.

`CC(=O)NC(C)C(=O)NCc1ccccc1` (centres undefined) yielded an ED50 in series [10] of 77 mg/kg. Moreover, the values for the Activity in series [13], in [6] and in series [9] were 3, 0 and 1, respectively.

Consider `CN1C(=O)CNC1=O`, for which the Activity in series [4], in series [5] and in series [6] was 0 each time.

Regarding `O=C1NC(=O)C(c2ccccc2)N1` (centres undefined), the 50% effective dose (ED50) turned out to be 156 mg/kg in series [10] and 109 mg/kg in series [12]. The Activity came to 2 in [2], 3 in [14] and 1 in series [9]. For the same compound, in series [15], the TD50 turned out to be 399 mg/kg.

For `COc1cccc(CN2C(=O)NC(C)(C)C2O)c1` (centres undefined), the Activity is reported as 1 in [7], 0 in [5] and 0 in series [6].

For `Oc1nc(-c2ccccc2)cn1Cc1ccccc1`, the Activity in series [4], in series [5] and in series [6] was 0 throughout.

As to `Cn1ccnc1O`, the Activity in [4], in [5] and in series [6] was 0 each time.

For the compound `CC1(C)NC(=O)N(CCc2ccccc2)C1O` (centres undefined), the Activity in [7], in [3] and in [9] was 1 throughout.

As to `Cc1cn(C)c(O)n1`, the Activity in [4], in series [5] and in series [6] was 0 in each case.

For the compound `CC1C(=O)N(C)C(=O)N1C` (centres undefined), the Activity in series [4] is listed as 0; in series [5], 0; in series [8] it was 2.

With `COc1cccc(CN2C(=O)NC(C)(C)C2=O)c1`, the Activity amounted to 1 in series [7], 0 in [5] and 0 in series [6].

As for `CC1C(O)N(C)C(=O)N1C` (centres undefined), the Activity in series [4], in [5] and in series [6] was 0 each time.

The compound `NC(=O)NC(=O)Cc1ccccc1` [PHENACEMIDE] returned an ED50 in [10] of 87 mg/kg.

For the compound `CC1NC(=O)NC1=O` (centres undefined), the Activity in [4], in series [5] and in [6] was 0 in each case.

As for `O=C1NCC(O)N1Cc1ccccc1` (centres undefined), the Activity in series [7] was 1; in series [5] it was 0; in series [6], 0.

For `O=C1NCC(O)N1c1ccccc1` (centres undefined), the Activity in series [4], in [5] and in [6] was 0 throughout.

`CC1NC(=O)N(C)C1=O` (centres undefined): the Activity in [4], in [5] and in [6] was 0 in each case.

In the case of `O=C1NC(c2ccccc2)C(=O)N1Cc1ccccc1` (centres undefined), the Activity in series [4], in [5] and in [6] was 0 throughout.

In the case of `CCC1(c2ccccc2)NC(=O)N(C)C1=O` (centres undefined) [MEPHENYTOIN], the ED50 in series [10] was found to be 61 mg/kg; in series [12] it was 31 mg/kg.
